Measurements: ChEMBL document CHEMBL1201862, “PubChem BioAssay data set” (2004)
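Each compound was tested at five concentrations against cells in 96-well plates for 48 hours. GI50 = concentration required for 50% inhibition of growth.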 Active and inactive are the calls of the source. No stated cut-off is given here; in the data, active = GI50 up to about 1.1 µM and inactive = higher.

Tests used:
Assay in all cases: growth of human tumour cells (NCI), 48 h
CCRF-CEM = tested on: CCRF-CEM
HT-29 = tested on: HT-29
RXF 393 = tested on: RXF 393
HOP-62 = tested on: HOP-62
HCT-15 = tested on: HCT-15
OVCAR-8 = tested on: OVCAR-8
SK-MEL-2 = tested on: SK-MEL-2
OVCAR-3 = tested on: OVCAR-3
NCI-H23 = tested on: NCI-H23
SNB-78 = tested on: SNB-78
UACC-62 = tested on: UACC-62
OVCAR-5 = tested on: OVCAR-5
XF498 = tested on: XF498
SW-620 = tested on: SW-620
HCC 2998 = tested on: HCC 2998
NCI-H522 = tested on: NCI-H522
UACC-257 = tested on: UACC-257
DMS-114 = tested on: DMS-114
SF-268 = tested on: SF-268
DLD-1 = tested on: DLD-1
SN12C = tested on: SN12C
HOP-92 = tested on: HOP-92
NCI/ADR-RES = tested on: NCI/ADR-RES
SF-539 = tested on: SF-539
IGROV-1 = tested on: IGROV-1
SK-MEL-28 = tested on: SK-MEL-28
KM-20L2 = tested on: KM-20L2
A498 = tested on: A498
SF-295 = tested on: SF-295
M19-MEL = tested on: M19-MEL
U-251 = tested on: U-251
KM12 = tested on: KM12
EKVX = tested on: EKVX
SNB-75 = tested on: SNB-75
OVCAR-4 = tested on: OVCAR-4
CAKI-1 = tested on: CAKI-1
HOP-18 = tested on: HOP-18
HCT-116 = tested on: HCT-116
MOLT-4 = tested on: MOLT-4
COLO 205 = tested on: COLO 205
A549 = tested on: A549
NCI-H226 = tested on: NCI-H226
DMS-273 = tested on: DMS-273
SK-MEL-5 = tested on: SK-MEL-5
Malme-3M = tested on: Malme-3M
UO-31 = tested on: UO-31
RPMI-8226 = tested on: RPMI-8226
LOX IMVI = tested on: LOX IMVI
SNB-19 = tested on: SNB-19
HL-60 = tested on: HL-60
MCF7 = tested on: MCF7
SK-OV-3 = tested on: SK-OV-3
NCI-H460 = tested on: NCI-H460
K562 = tested on: K562
MDA-MB-231 = tested on: MDA-MB-231
SR = tested on: SR
ACHN = tested on: ACHN
M14 = tested on: M14
PC-3 = tested on: PC-3
TK-10 = tested on: TK-10
786-0 = tested on: 786-0
BT-549 = tested on: BT-549
MDA-N = tested on: MDA-N
MDA-MB-435 = tested on: MDA-MB-435
Hs-578T = tested on: Hs-578T
DU-145 = tested on: DU-145
T47D = tested on: T47D

SMILES: CC(C)c1oc(=O)cc2c1C(O)C1OC(=O)C3(C)C(O)C4OC4C2(C)C13 (stereo unspecified) [NAGILACTONE]
- GI50 (CCRF-CEM): 0.817 µM (active)
- GI50 (HT-29): 1.69 µM (inactive)
- GI50 (RXF 393): 1.62 µM (inactive)
- GI50 (HOP-62): 2.15 µM (inactive)
- GI50 (HCT-15): 2.07 µM
- GI50 (OVCAR-8): 1.75 µM (inactive)
- GI50 (SK-MEL-2): 2.16 µM (inactive)
- GI50 (OVCAR-3): 1.41 µM (inactive)
- GI50 (NCI-H23): 1.36 µM (inactive)
- GI50 (SNB-78): 6.25 µM (inactive)
- GI50 (UACC-62): 1.38 µM (inactive)
- GI50 (OVCAR-5): 9.48 µM (inactive)
- GI50 (XF498): 0.703 µM (active)
- GI50 (SW-620): 1.45 µM (inactive)
- GI50 (HCC 2998): 1.86 µM (inactive)
- GI50 (NCI-H522): 1.15 µM (inactive)
- GI50 (UACC-257): 1.83 µM (inactive)
- GI50 (DMS-114): 1.13 µM (inactive)
- GI50 (SF-268): 4.09 µM (inactive)
- GI50 (DLD-1): 1.23 µM (inactive)
- GI50 (SN12C): 1.31 µM (inactive)
- GI50 (HOP-92): 0.7 µM (active)
- GI50 (NCI/ADR-RES): 12.9 µM (inactive)
- GI50 (SF-539): 0.989 µM (active)
- GI50 (IGROV-1): 2.75 µM (inactive)
- GI50 (SK-MEL-28): 1.37 µM (inactive)
- GI50 (KM-20L2): 1.63 µM (inactive)
- GI50 (A498): 0.569 µM (active)
- GI50 (SF-295): 1.65 µM (inactive)
- GI50 (M19-MEL): 1.26 µM (inactive)
- GI50 (U-251): 1.58 µM (inactive)
- GI50 (KM12): 1.72 µM (inactive)
- GI50 (EKVX): 2.19 µM (inactive)
- GI50 (SNB-75): 1.92 µM (inactive)
- GI50 (OVCAR-4): 2.12 µM (inactive)
- GI50 (CAKI-1): 2.08 µM (inactive)
- GI50 (HOP-18): 3.48 µM (inactive)
- GI50 (HCT-116): 1.09 µM (active)
- GI50 (MOLT-4): 0.83 µM (active)
- GI50 (COLO 205): 1.13 µM (inactive)
- GI50 (A549): 2.44 µM (inactive)
- GI50 (NCI-H226): 2.16 µM (inactive)
- GI50 (DMS-273): 0.966 µM (active)
- GI50 (SK-MEL-5): 0.628 µM (active)
- GI50 (Malme-3M): 1.69 µM (inactive)
- GI50 (UO-31): 4.52 µM (inactive)
- GI50 (RPMI-8226): 1.1 µM (active)
- GI50 (LOX IMVI): 0.653 µM (active)
- GI50 (SNB-19): 0.573 µM (active)
- GI50 (HL-60): 0.478 µM (active)
- GI50 (MCF7): 0.728 µM (active)
- GI50 (SK-OV-3): 5.2 µM (inactive)
- GI50 (NCI-H460): 0.733 µM (active)
- GI50 (K562): 1.01 µM (active)

SMILES: C[C@]12CC[C@H](OC3OC(CO)C(O)C(O)C3O)C[C@H]1CC[C@@H]1[C@@H]2CC[C@]2(C)[C@@H](C3=CCOC3=O)CC[C@]12O (stereo partly specified) [ACTODIGIN]
- GI50 (HT-29): 41.1 µM (inactive)
- GI50 (RXF 393): 8.49 µM (inactive)
- GI50 (MDA-MB-231): > 100 µM (inactive)
- GI50 (HOP-62): 0.787 µM (active)
- GI50 (SR): 2.96 µM (inactive)
- GI50 (ACHN): 14.5 µM (inactive)
- GI50 (HCT-15): 22.7 µM
- GI50 (SK-MEL-2): 30.9 µM (inactive)
- GI50 (NCI-H23): 15.8 µM (inactive)
- GI50 (SNB-78): 26.5 µM (inactive)
- GI50 (M14): > 100 µM (inactive)
- GI50 (UACC-62): 6.64 µM (inactive)
- GI50 (OVCAR-5): > 50 µM (inactive)
- GI50 (XF498): 1.44 µM (inactive)
- GI50 (SW-620): 18.6 µM (inactive)
- GI50 (HCC 2998): 26.8 µM (inactive)
- GI50 (NCI-H522): 16.8 µM (inactive)
- GI50 (PC-3): > 100 µM (inactive)
- GI50 (DMS-114): 10.2 µM (inactive)
- GI50 (TK-10): > 100 µM (inactive)
- GI50 (786-0): > 100 µM (inactive)
- GI50 (SF-268): 8.2 µM (inactive)
- GI50 (DLD-1): 39.7 µM (inactive)
- GI50 (SN12C): 20.1 µM (inactive)
- GI50 (BT-549): > 100 µM (inactive)
- GI50 (MDA-N): > 100 µM (inactive)
- GI50 (HOP-92): 2.24 µM (inactive)
- GI50 (NCI/ADR-RES): 24.4 µM (inactive)
- GI50 (MDA-MB-435): > 100 µM (inactive)
- GI50 (SF-539): 0.447 µM (active)
- GI50 (IGROV-1): 28.4 µM (inactive)
- GI50 (SK-MEL-28): 22.5 µM (inactive)
- GI50 (KM-20L2): 3.55 µM (inactive)
- GI50 (A498): 5.48 µM (inactive)
- GI50 (SF-295): 1.45 µM (inactive)
- GI50 (M19-MEL): 11.7 µM (inactive)
- GI50 (U-251): 4.73 µM (inactive)
- GI50 (Hs-578T): 40.9 µM (inactive)
- GI50 (KM12): 19.2 µM (inactive)
- GI50 (EKVX): 16.5 µM (inactive)
- GI50 (SNB-75): 6.84 µM (inactive)
- GI50 (DU-145): > 100 µM (inactive)
- GI50 (OVCAR-4): 41 µM (inactive)
- GI50 (HOP-18): 50 µM (inactive)
- GI50 (T47D): > 100 µM (inactive)
- GI50 (HCT-116): 15.7 µM (inactive)
- GI50 (COLO 205): 16.9 µM (inactive)
- GI50 (A549): 15.7 µM (inactive)
- GI50 (DMS-273): 1.97 µM (inactive)
- GI50 (SK-MEL-5): 7.52 µM (inactive)
- GI50 (Malme-3M): 2.09 µM (inactive)
- GI50 (UO-31): 40.3 µM (inactive)
- GI50 (LOX IMVI): 0.495 µM (active)
- GI50 (HL-60): 4.51 µM (inactive)
- GI50 (MCF7): 10.4 µM (inactive)
- GI50 (SK-OV-3): > 50 µM (inactive)
- GI50 (K562): 21.5 µM (inactive)
